Measurements reported in patent US11174271B2, “6-membered uracil isosteres” (CV6 Therapeutics (NI) Limited, priority 2016, dated 2021).

Molecular target: T1, recombinant human deoxyuridine nucleotidohydrolase (dUTPase) (Homo sapiens, UniProt P33316)
T1 construct: made in house
T1 sequence (P33316 1-164 isoform P33316-2): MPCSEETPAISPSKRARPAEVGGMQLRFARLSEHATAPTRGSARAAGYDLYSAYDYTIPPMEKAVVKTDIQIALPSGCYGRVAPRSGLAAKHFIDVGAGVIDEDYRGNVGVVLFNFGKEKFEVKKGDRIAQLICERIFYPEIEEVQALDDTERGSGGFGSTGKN
Test: fluorescence-based dUTPase inhibition assay (DNA polymerase-based dUTP detection)
Format: biochemical
Settings: mean across three concentrations, typically 100, 50 and 25 μmol/L, compared to the in-run positive control
Excerpt: Recombinant human deoxyuridine nucleotidohydrolase (dUTPase) is expressed and purified as described in Ladner R D, Carr S A, Huddleston M J, McNulty D E, Caradonna S J. J Biol Chem. 1996 Mar. 29; 271(13):7752-7. All drugs stocks are aliquoted and diluted as appropriate prior to use. The oligonucelotide primer, templates and fluorophore- and quencher-labeled detection probes are synthesized by Integrated DNA Technologies (Coralville, Iowa), subjected to polyacrylamide gel electrophoresis purification and reconstituted in Omnipur sterile nuclease-free water (EMD Chemicals USA, Gibbstown N.J.) at a stock concentration of 100 μmol/L. The two non-emissive (dark) quenching molecules incorporated into the detection probes include the Iowa black fluorescein quencher (IBFQ; absorption max 531 nm) and ZEN (non-abbreviation; absorption max 532 nm). The fluorescent label utilized is 6-FAM (5′-carboxyfluorescein; excitation max.=494 nm, emission max.=520 nm). Probes are further diluted to a working stock of 10 μmol/L and aliquoted to avoid repeated freeze/thaw cycles. AmpliTaq Gold DNA Polymerase, GeneAmp 10×PCR Buffer 2, MgCl2 and MicroAmp Optical 96-well Reaction Plates are purchased from Applied Biosystems (Carlsbad, Calif.). dNTPs are purchased individually at stock concentrations of 100 mmol/L from New England Biolabs at HPLC-certified >99% purity (Ipswich, Mass.).
Reaction mixtures contained primer, probe and template at an equimolar final concentration of 0.4 μmol/L. Magnesium chloride (MgCl2) is included at a final concentration of 2 mmol/L. Non-limiting dNTPs are included in the reaction mix in excess at a final concentration of 100 μmol/L (dUTP/dTTP is excluded). AmpliTaq Gold DNA polymerase is added at 0.875 U/reaction, 2.5 μl of 10×PCR buffer 2 added and nuclease-free ddH2O added to a final reaction volume of 25 μl. For dUTP inhibition analysis, the volume of ddH2O is further modified to accommodate an additional 1 μl of dUTPase (10 ng/μl) and 1 μl of inhibitor or DMSO control. Thermal profiling and fluorescence detection is performed using a customized thermal program on board a Roche Lightcycler LC480 Instrument II. For analysis of dNTPs, the thermal profile consisted of an 8 min 37° C. step followed by a 10 min 95° C. step to ‘hot-start’ the Taq polymerase and a primer extension time of up to 30 min at 60° C. Raw fluorescence spectra for 6-FAM is measured at specified time intervals to follow assay progression on board a Roche LightCycler 480 Software Version 1.5 and exported and analyzed in Microsoft Excel (Microsoft, Redmond Wash.) and Prism (GraphPad Software, La Jolla Calif.). Fluorescence values for blank reactions (limiting dNTP omitted) are subtracted to give normalized fluorescence units (NFU) to account for background fluorescence.
Test compounds were screened in a fluorescence-based assay. The assay employed a DNA polymerase-based approach utilizing an oligonucleotide template with 3 distinct regions: a 3′ primer binding region, a mid-template dUTP/thymidine triphosphate (TTP) detection region and a 5′ 6-[…] (FAM)-labeled probe binding region that incorporates a black hole quenching moiety. During the reaction, the probe and primer hybridize to the oligonucleotide template to form the template:primer:probe complex. When Taq polymerase binds to the primer in the TPP complex and dUTP is present, successful extension of the nascent strand occurs and the inherent 5′ to 3′ exonuclease activity of Taq polymerase cleaves and displaces the 6-FAM-labeled probe in a 5′ to 3′ direction, releasing the 6-FAM fluorophore from its proximity to the […]. This displacement effectively disrupts the Förster resonance energy transfer (FRET) and the resulting fluorescence detected upon excitation is directly proportional to the amount of the dUTP available in the assay for incorporation. […]

Question: With CC[C@@](O)(CNS(=O)(=O)CCCCC1CCC(=O)NC1=O)c1ccc(F)c(OCC2CC2)c1 (stereo partly drawn) [Example 90, N—((S)-2-(3-(cyclopropylmethoxy)-4-fluorophenyl)-2-hydroxybutyl)-4-(2,6-dioxopiperidin-3-yl)butane-1-sulfonamide] as the molecule, how does the “% relative inhibition vs. positive control” value read?
Answer: 82%

Question: Which “% relative inhibition vs. positive control” value (listed as 79 trans isomer 1) does the source give for CC(C)(NS(=O)(=O)CC/C=C/CC1CCC(=O)NC1=O)c1ccc(F)c(OCC2CC2)c1 (single isomer, unassigned) [Example 79 trans isomer 1, (E)-N-(2-(3-(cyclopropylmethoxy)-4-fluorophenyl)propan-2-yl)-5-(2,6-dioxopiperidin-3-yl)pent-3-ene-1-sulfonamide] here?
Answer: 22%

Question: Which “% relative inhibition vs. positive control” value (listed as 81 isomer 1) does the source give for CC(C)(NS(=O)(=O)CCCCCC1CCC(=O)NC1=O)c1ccc(F)c(OCC2CC2)c1 (single isomer, unassigned) [Example 81 isomer 1, N-(2-(3-(cyclopropylmethoxy)-4-fluorophenyl)propan-2-yl)-5-(2,6-dioxopiperidin-3-yl)pentane-1-sulfonamide] here?
Answer: 16%

Question: With CC[C@@](O)(CNS(=O)(=O)CCCNC1CCC(=O)NC1=O)c1ccc(F)c(OCC2CC2)c1 (stereo partly drawn) [Example 86, N—((S)-2-(3-(cyclopropylmethoxy)-4-fluorophenyl)-2-hydroxybutyl)-3-((2,6-dioxopiperidin-3-yl)amino)propane-1-sulfonamide] as the molecule, how does the “% relative inhibition vs. positive control” value read?
Answer: 6%

Question: How did the “% relative inhibition vs. positive control” value turn out when CC[C@@H](NS(=O)(=O)CC/C=C/CC1CCC(=O)NC1=O)c1ccc(F)c(OCC2CC2)c1 (stereo partly drawn) [Example 88, (E)-N—((R)-1-(3-(cyclopropylmethoxy)-4-fluorophenyl)propyl)-5-(2,6-dioxopiperidin-3-yl)pent-3-ene-1-sulfonamide] was run?
Answer: 80%

Question: For CC(C)(NS(=O)(=O)C/C=C/CCC1CCC(=O)NC1=O)c1ccc(F)c(OCC2CC2)c1 (stereo not shown) [Example 87, (E)-N-(2-(3-(cyclopropylmethoxy)-4-fluorophenyl)propan-2-yl)-5-(2,6-dioxopiperidin-3-yl)pent-2-ene-1-sulfonamide], which “% relative inhibition vs. positive control” value is on record?
Answer: 26%

Question: CC(C)(NS(=O)(=O)CCC/C=C/CC1CCC(=O)NC1=O)c1ccc(F)c(OCC2CC2)c1 (stereo not shown) [Example 83, (E)-N-(2-(3-(cyclopropylmethoxy)-4-fluorophenyl)propan-2-yl)-6-(2,6-dioxopiperidin-3-yl)hex-4-ene-1-sulfonamide] was tested. Which “% relative inhibition vs. positive control” value did it give?
Answer: 45%

Question: For CC(C)(NS(=O)(=O)C/C=C/CC1CCC(=O)NC1=O)c1ccc(F)c(OCC2CC2)c1 (stereo not shown) [Example 82, (E)-N-(2-(3-(cyclopropylmethoxy)-4-fluorophenyl)propan-2-yl)-4-(2,6-dioxopiperidin-3-yl)but-2-ene-1-sulfonamide], which “% relative inhibition vs. positive control” value is on record?
Answer: 26%

Question: How did the “% relative inhibition vs. positive control” value turn out when CC(C)(NS(=O)(=O)CC/C=C/CC1CCC(=O)NC1=O)c1cccc(OCC2CC2)c1 (stereo not shown) [Example 84, (E)-N-(2-(3-(cyclopropylmethoxy)phenyl)propan-2-yl)-5-(2,6-dioxopiperidin-3-yl)pent-3-ene-1-sulfonamide] was run?
Answer: 22%

Question: How did the “% relative inhibition vs. positive control” value (listed as 88 trans isomer 2) turn out when CC[C@@H](NS(=O)(=O)CC/C=C/CC1CCC(=O)NC1=O)c1ccc(F)c(OCC2CC2)c1 (single isomer, unassigned) [Example 88 trans isomer 2] was run?
Answer: 167%

Question: CC(C)(O)COc1cc(C2(NS(=O)(=O)CC/C=C/CN3CCC(=O)NC3=O)CC2)ccc1F [Example 92, (E)-5-(2,4-dioxotetrahydropyrimidin-1(2H)-yl)-N-(1-(4-fluoro-3-(2-hydroxy-2-methylpropoxy)phenyl)cyclopropyl)pent-3-ene-1-sulfonamide] was tested. Which “% relative inhibition vs. positive control” value did it give?
Answer: 81%

Question: CC(C)(NS(=O)(=O)CCCCCC1CCC(=O)NC1=O)c1ccc(F)c(OCC2CC2)c1 (single isomer, unassigned) [Example 81 isomer 2, N-(2-(3-(cyclopropylmethoxy)-4-fluorophenyl)propan-2-yl)-5-(2,6-dioxopiperidin-3-yl)pentane-1-sulfonamide] was tested. Which “% relative inhibition vs. positive control” value (listed as 81 isomer 2) did it give?
Answer: 41%

Question: With CC(C)(NS(=O)(=O)CCCCCNC1CCC(=O)NC1=O)c1ccc(F)c(OCC2CC2)c1 (stereo not shown) [Example 85, N-(2-(3-(cyclopropylmethoxy)-4-fluorophenyl)propan-2-yl)-5-((2,6-dioxopiperidin-3-yl)amino)pentane-1-sulfonamide] as the molecule, how does the “% relative inhibition vs. positive control” value read?
Answer: 11%

Question: Which “% relative inhibition vs. positive control” value does the source give for CC(C)(NS(=O)(=O)CCCCCC1CCC(=O)NC1=O)c1ccc(F)c(OCC2CC2)c1 (stereo not shown) [Example 81, N-(2-(3-(cyclopropylmethoxy)-4-fluorophenyl)propan-2-yl)-5-(2,6-dioxopiperidin-3-yl)pentane-1-sulfonamide] here?
Answer: 49%

Question: Which “% relative inhibition vs. positive control” value (listed as 88 trans isomer 1) does the source give for CC[C@@H](NS(=O)(=O)CC/C=C/CC1CCC(=O)NC1=O)c1ccc(F)c(OCC2CC2)c1 (single isomer, unassigned) [Example 88 trans isomer 1] here?
Answer: 10%

Question: Which “% relative inhibition vs. positive control” value does the source give for CC(C)(NS(=O)(=O)CC/C=C/CC1CCC(=O)NC1=O)c1ccc(F)c(OCC2CC2)c1 (stereo not shown) [Example 79, (E)-N-(2-(3-(cyclopropylmethoxy)-4-fluorophenyl)propan-2-yl)-5-(2,6-dioxopiperidin-3-yl)pent-3-ene-1-sulfonamide] here?
Answer: 70%

Question: CC[C@@H](NS(=O)(=O)CCCCCC1CCC(=O)NC1=O)c1ccc(F)c(OCC2CC2)c1 (stereo partly drawn) [Example 91, N—((R)-1-(3-(cyclopropylmethoxy)-4-fluorophenyl)propyl)-5-(2,6-dioxopiperidin-3-yl)pentane-1-sulfonamide] was tested. Which “% relative inhibition vs. positive control” value did it give?
Answer: 10%

Question: With CC[C@@](O)(CNS(=O)(=O)C/C=C/CC1CCC(=O)NC1=O)c1ccc(F)c(OCC2CC2)c1 (stereo partly drawn) [Example 89, (E)-N—((S)-2-(3-(cyclopropylmethoxy)-4-fluorophenyl)-2-hydroxybutyl)-4-(2,6-dioxopiperidin-3-yl)but-2-ene-1-sulfonamide] as the molecule, how does the “% relative inhibition vs. positive control” value read?
Answer: 65%

Question: For CC(C)(NS(=O)(=O)CC/C=C/CC1CCC(=O)NC1=O)c1ccc(F)c(OCC2CC2)c1 (single isomer, unassigned) [Example 79 trans isomer 2, (E)-N-(2-(3-(cyclopropylmethoxy)-4-fluorophenyl)propan-2-yl)-5-(2,6-dioxopiperidin-3-yl)pent-3-ene-1-sulfonamide], which “% relative inhibition vs. positive control” value (listed as 79 trans isomer 2) is on record?
Answer: 51%
